Results taken from article PMC10272112 (Nature Communications, 2023).
Like-named read-outs stand apart in the source and are kept apart here. One block for each compound: values may come before it.

Molecular target: T1, HDAC6 (Homo sapiens, UniProt Q9UBN7)
T1 sequence (Q9UBN7 1-1215): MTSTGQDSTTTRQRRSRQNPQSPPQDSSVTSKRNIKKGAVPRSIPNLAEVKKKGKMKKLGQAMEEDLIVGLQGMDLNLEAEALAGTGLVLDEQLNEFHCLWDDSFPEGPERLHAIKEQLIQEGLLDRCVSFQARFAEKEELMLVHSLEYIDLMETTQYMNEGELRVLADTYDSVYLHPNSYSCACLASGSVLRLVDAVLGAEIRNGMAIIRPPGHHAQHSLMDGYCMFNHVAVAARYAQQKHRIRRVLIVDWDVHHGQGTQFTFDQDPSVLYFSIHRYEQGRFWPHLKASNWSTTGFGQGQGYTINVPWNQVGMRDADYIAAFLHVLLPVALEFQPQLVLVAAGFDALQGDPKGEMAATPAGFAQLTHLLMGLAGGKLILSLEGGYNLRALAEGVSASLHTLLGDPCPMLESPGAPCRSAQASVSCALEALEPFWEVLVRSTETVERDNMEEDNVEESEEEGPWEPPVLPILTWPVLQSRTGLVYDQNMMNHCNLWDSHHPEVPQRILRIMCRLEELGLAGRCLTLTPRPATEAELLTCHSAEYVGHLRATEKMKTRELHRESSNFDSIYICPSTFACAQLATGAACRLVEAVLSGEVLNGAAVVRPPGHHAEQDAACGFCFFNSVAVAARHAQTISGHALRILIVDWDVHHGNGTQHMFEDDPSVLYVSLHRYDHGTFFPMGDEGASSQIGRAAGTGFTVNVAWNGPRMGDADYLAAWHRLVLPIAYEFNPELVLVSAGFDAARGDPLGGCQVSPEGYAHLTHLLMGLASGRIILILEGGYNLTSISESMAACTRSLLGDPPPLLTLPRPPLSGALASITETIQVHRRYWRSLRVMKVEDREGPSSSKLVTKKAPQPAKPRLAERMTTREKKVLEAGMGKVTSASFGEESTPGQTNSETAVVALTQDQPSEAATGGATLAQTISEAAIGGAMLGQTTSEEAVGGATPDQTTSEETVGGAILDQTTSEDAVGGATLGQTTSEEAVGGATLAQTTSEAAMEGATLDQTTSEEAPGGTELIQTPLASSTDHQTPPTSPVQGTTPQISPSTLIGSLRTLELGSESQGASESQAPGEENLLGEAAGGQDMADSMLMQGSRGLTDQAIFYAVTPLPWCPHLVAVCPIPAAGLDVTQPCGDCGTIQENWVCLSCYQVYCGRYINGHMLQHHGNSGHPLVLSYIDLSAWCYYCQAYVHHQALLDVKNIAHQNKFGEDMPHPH
Test: Chemoproteomic competition pulldown assay
Format: binding
Set-up: endogenous in cells; host or cells: SW620, MV4-11, A549 lysates
Protocol: To identify proteins directly bound by lipoic acid, we employed a chemoproteomic competition assay. Briefly, (R/S)-LA was immobilized on sepharose beads via an amidation reaction to form an affinity matrix (abbreviated as iL; Fig. 1a). This affinity matrix can be incubated with cell lysate to pull down potential LA or LM target proteins and identify these targets via bottom-up proteomics. In a competition assay, free LA or LM were incubated with lysate at different concentrations before pulling down and quantifying target proteins. […] (Fig. 1b, see “Methods” for details). […] The lysate buffer used in this assay contains 1 mM DTT to mimic the intracellular reductive milieu and to reduce lipoic acid and LM. […] Additional competition assays performed in lung adenocarcinoma cell A549 lysate also identified HDAC1, HDAC2, and HDAC6 as targets (Supplementary Fig. 1b). Amongst the three cell lines tested, HDACs were the only confidently identified targets across the 1500–3000 proteins quantified in these assays. […] We validated the results by analogous pulldown competition assays using two other affinity matrices prepared via the immobilization of either the HDAC inhibitor Quisinostat (iQ) and an analog of the class IIa HDAC inhibitor Bürli’s 31[14] (iC)[12]. We have previously shown that these affinity matrices specifically bind to the active sites of HDACs and have used them for HDACi selectivity profiling. Indeed, binding of (R/S)-LA and (R/S)-LM to HDAC1, HDAC2, HDAC3, HDAC6, and, to a lesser extent, HDAC8 was confirmed in these assays (Supplementary Fig. 1c, d). No binding to class IIa HDACs or the recently discovered common HDAC inhibitor off-target MBLAC2 was observed (Supplementary Fig. 1e)[12]. […] This observation might reflect electrostatic repulsion between the HDAC10 active site gate-keeper glutamic acid residues[15],[16] and the terminal carboxylic acid of LA.
To assess the degree of protein depletion from lysates by the affinity matrix, a second pulldown (PDPD) with fresh beads was performed using the unbound protein fraction from the vehicle control flow through. The beads were washed (1 × 1 mL of lysis buffer without inhibitors and only 0.4% Igepal, 2 × 2 mL of lysis buffer without inhibitors and only 0.2% Igepal), and captured proteins were denatured with 8 M urea buffer, alkylated with 55 mM chloroacetamide and digested with Trypsin according to standard procedures. The resulting peptides were desalted on a C18 filter plate (Sep-Pak® tC18 µElution Plate, Waters), vacuum dried, and stored at −20 °C until LC–MSMS measurement.
For the competition assays, relative binding was calculated based on the protein intensity ratio to the DMSO control for every single inhibitor concentration. EC50 values were derived from a four-parameter log-logistic regression with variable slope (constrain: bottom > 0). The obtained EC50 values were multiplied with a protein-dependent correction factor (cf), resulting in the apparent Kd value (Kd^app). The correction factor is determined by calculating the ratio of the protein intensity of two consecutive pulldowns of the vehicle control sample[13]. Targets of the inhibitors were annotated manually according to published procedures[12],[46],[47]. […] Additionally, the number of unique peptides and MSMS counts per condition were taken into account. Positive target binding across several independent experiments performed with different cell lysates further substantiated our confidence for a true positive drug-target binding event.

[1] = iL, SW620, read-out: pKdapp (converted)
[2] = iQ, SW620, read-out: pKdapp (converted)
[3] = iQ, SW620 lysate, log10 M -3.52288
[4] = iQ, SW620 lysate, log10 M -4.52288
[5] = iQ, SW620 lysate, log10 M -5.52288
[6] = iQ, SW620 lysate, log10 M -6.52288

- relative binding vs DMSO (iL, MV4-11 lysate, log10 M -3.52288): 0.06003
- relative binding vs DMSO (iL, MV4-11 lysate, log10 M -4): 0.1375
- relative binding vs DMSO (iL, MV4-11 lysate, log10 M -4.52288): 0.3195
- relative binding vs DMSO (iL, MV4-11 lysate, log10 M -5): 0.763
- relative binding vs DMSO (iL, MV4-11 lysate, log10 M -5.52288): 0.7012
- relative binding vs DMSO (iL, MV4-11 lysate, log10 M -6): 0.776
- relative binding vs DMSO (iL, MV4-11 lysate, log10 M -6.52288): 0.9127
- relative binding vs DMSO (iL, MV4-11 lysate, log10 M -7): 0.9147
- Kd (iL, MV4-11 lysate, read-out: Kd app): 21 µM
- Kd (iL, MV411, read-out: pKdapp (converted)): 10 µM
- Kd [1]: 15.8 µM
- Kd [2]: 10 µM
- relative binding vs DMSO [3]: 0.1855
- relative binding vs DMSO (iQ, SW620 lysate, log10 M -4): 0.2172
- relative binding vs DMSO [4]: 0.4129
- relative binding vs DMSO (iQ, SW620 lysate, log10 M -5): 0.6644
- relative binding vs DMSO [5]: 0.9409
- relative binding vs DMSO (iQ, SW620 lysate, log10 M -6): 1.062
- relative binding vs DMSO [6]: 0.8866
- relative binding vs DMSO (iQ, SW620 lysate, log10 M -7): 0.9139
Compound: NC(=O)CCCCC1CCSS1 (racemic) [(R/S)-LM, (R/S)-lipoamide]

Compound: O=C(O)CCCCC1CCSS1 (racemic) [(R/S)-LA, (R/S)-lipoic acid]
- Kd (iL, A549, read-out: pKdapp (converted)): 5.01 µM
- relative binding vs DMSO (iL, A549 lysate, log10 M -4): 0.05504
- relative binding vs DMSO (iL, A549 lysate, log10 M -4.52288): 0.1518
- relative binding vs DMSO (iL, A549 lysate, log10 M -5): 0.3845
- relative binding vs DMSO (iL, A549 lysate, log10 M -5.52288): 0.7285
- relative binding vs DMSO (iL, A549 lysate, log10 M -6): 0.9189
- relative binding vs DMSO (iL, A549 lysate, log10 M -6.52288): 1.088
- relative binding vs DMSO (iL, A549 lysate, log10 M -7.52288): 1.108
- relative binding vs DMSO (iL, A549 lysate, log10 M -8): 1.195
- relative binding vs DMSO (iL, A549 lysate, log10 M -8.52288): 0.9886
- Kd [1]: 10 µM
- relative binding vs DMSO (iL, SW620 lysate, log10 M -3.52288): 0.1052
- relative binding vs DMSO (iL, SW620 lysate, log10 M -4): 0.1618
- relative binding vs DMSO (iL, SW620 lysate, log10 M -4.52288): 0.8697
- relative binding vs DMSO (iL, SW620 lysate, log10 M -5): 1.623
- relative binding vs DMSO (iL, SW620 lysate, log10 M -5.52288): 0.9452
- relative binding vs DMSO (iL, SW620 lysate, log10 M -6): 1.514
- relative binding vs DMSO (iL, SW620 lysate, log10 M -6.52288): 0.6952
- relative binding vs DMSO (iL, SW620 lysate, log10 M -7): 1.008
- Kd [2]: 10 µM
- relative binding vs DMSO [3]: 0.2137
- relative binding vs DMSO (iQ, SW620 lysate, log10 M -4): 0.2383
- relative binding vs DMSO [4]: 0.4233
- relative binding vs DMSO (iQ, SW620 lysate, log10 M -5): 0.664
- relative binding vs DMSO [5]: 0.8619
- relative binding vs DMSO (iQ, SW620 lysate, log10 M -6): 0.8804
- relative binding vs DMSO [6]: 1.0379
- relative binding vs DMSO (iQ, SW620 lysate, log10 M -7): 0.9144
